Read-outs that look alike come from different tables or passages of the source. Residues, ends and D or L forms follow the SMILES beside them.

One series relates to S. aureus (USA300). Format: cell-based, Staphylococcus aureus. The conditions noted are these: for MBC: USA300; for MIC: USA300, 16 h. The essentials:
(§1)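 MIC in Mueller-Hinton broth with 1 × 10^6 CFU/mL bacteria, overnight cultures grown first in LB (E. coli, P. aeruginosa, S. aureus) or Todd-Hewitt (S. pyogenes); growth read as OD 600. Library members screened at half the parent peptide MIC; MBC as lowest concentration giving no colonies after plating MIC wells, 37°C overnight.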

For a further series, the system named is S. pyogenes (M1). The series is classed as cell-based, Streptococcus pyogenes. The conditions noted are these: for MBC: M1. The procedure, abridged: as §1
The subject of series [1] is human keratinocyte cell line (HaCaT). The series is described as follows: HaCaT cytotoxicity, ethidium homodimer assay. The settings on record: 16 h, 37°C, DMEM + 10% FBS, normalised to saponin, triplicate. Format: cell-based. The method, then: To assess cytotoxicity of optimized peptides in mammalian cells, an immortalized human keratinocyte cell line (HaCaT) was used. Cells were grown to 80% confluency in 24-well culture dishes and washed with PBS (Thermo Fisher). […] After incubation, the cells were washed with sterile PBS, followed by a covered incubation with 4 μM ethidium homodimer (Molecular Probes) for 30 min at room temperature. Fluorescence was measured using the Synergy H1 Microplate Reader set to 528 nm excitation, 617 nm emission, and a cutoff value of 590 nm. Saponin (0.1% wt/vol, Sigma) was added to each well followed by a covered incubation for 20 min at room temperature, followed by another measurement on the Synergy H1 Microplate Reader using the same settings to normalize readings to the number of cells per well and determine the percent cytotoxicity.

The test system of a further series is P. aeruginosa (PAO1). Format: cell-based, Pseudomonas aeruginosa. The settings on record: for MBC: PAO1; for MIC: PAO1, 16 h. The procedure, abridged:
as §1

In a further series the test system is E. coli (BL21). Format: cell-based, Escherichia coli. The essentials: as §1
The next series concerns E. coli strain BL21. The series can be described thus: Propidium iodide uptake by FACS. Format: cell-based, Escherichia coli. The settings on record: 2, 4, 8, 16 or 32 μM peptide in saline, 1 h, ambient temperature, 1 × 10^4 events. The method, then: For determination of bacterial cell death via membrane disruption, bacterial cells were subjected to propidium iodide (PI) uptake and quantified using fluorescence-activated cell sorting (FACS). E. coli strain BL21 were first diluted to a OD 600 of 1.0. Cells were washed three times in 0.85% NaCl (saline) solution and resuspended in either 1.5 mL of either saline, 70% isopropyl alcohol, or peptide diluted to either 2, 4, 8, 16 or 32 μM in saline for 1 h at ambient temperature. Following incubation, cells were pelleted and resuspended in 1 mL of saline with 1.5 μL/mL propidium iodide and incubated in the dark for 15 min. The samples were washed again with saline three times and run through a Beckman Coulter FC500 flow cytometer. The FL3 detector, using the propidium iodine PE-Alexa Fluor 610 emission filter, was used to sort the cells. 1 × 10^4 events were collected for each sample run.
For orientation: A flow cytometer gives signals particle by particle.

For a further series, the system named is sheep erythrocytes. Format: cell-based. The conditions noted are these: red cells of sheep, 1 h. The procedure, abridged:
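Washed defibrinated sheep blood, diluted 1:25 in PBS, incubated 1 h at 37 °C with peptide at the MIC-assay concentrations (sample:blood 1:10). Haemoglobin release read as supernatant absorbance at 450 nm; percent haemolysis normalised to PBS and 10% Triton controls.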

The subject of series [2] is GFP-expressing E. coli strain BL21. The series is described as follows: Live imaging of GFP leakage. Format: cell-based, Escherichia coli. The conditions noted are these: 16 μM peptide, 8 h, 37°C, images every 10 min. The method, then:
To observe bacterial cell death in the presence of peptide in real time, fluorescence microscopy was employed using GFP-expressing E. coli strain BL21. MIC assays were conducted against BL21-GFP to determine the peptide concentration used for microscopy experiments. The peptide was suspended in PBS and added to diluted bacterial cells. GFP-expressing E. coli in the presence of peptide were imaged on the Eclipse Ti-E inverted microscope (Nikon) using GFP and DIC channels for 8 h at 37°C, with images taken every 10 min ([Fields et al., 2020]). Syn-xiamencin-2, a peptide with no detectable antimicrobial activity below 128 μM was also evaluated as a negative peptide candidate control.

Setting [3] is: E. coli BL21, running text b43, unit printed nm.

On to `CC[C@H](C)[C@H](NC(=O)[C@H](CCCNC(=N)N)NC(=O)[C@H](CCC(N)=O)NC(=O)[C@@H](NC(=O)[C@H](Cc1c[nH]c2ccccc12)NC(=O)[C@H](C)N)[C@@H](C)O)C(=O)N[C@@H](CCCCN)C(=O)N[C@@H](C)C(=O)N[C@@H](Cc1ccc(O)cc1)C(=O)N[C@@H](CC(C)C)C(=O)N[C@@H](CCCNC(=N)N)C(=O)N[C@@H](CCCNC(=N)N)C(=O)N[C@@H](CCC(=O)O)C(=O)N[C@H](C(=O)N[C@@H](CCCNC(=N)N)C(=O)N[C@@H](CCCCN)C(=O)N[C@@H](CCCNC(=N)N)C(=O)NCC(=O)N[C@@H](CCCNC(=N)N)C(=O)N[C@@H](CCCCN)C(=O)N[C@@H](C)C(=O)N[C@H](C(=O)N[C@H](C(=O)N[C@@H](C)C(=O)N[C@@H](Cc1c[nH]c2ccccc12)C(=O)O)[C@@H](C)CC)C(C)C)[C@@H](C)CC` [Syn-sordellicin-19] (H-AWTQRIKAYLRREIRKRGRKAVIAW-OH; N-terminus and C-terminus assumed), for which the MBC (usually the smallest concentration meeting the test's criterion for killing) with S. aureus (USA300) was greater than 128 µM; with S. pyogenes (M1) it was 2 µM; in the series with P. aeruginosa (PAO1) it was 16 µM; in the series with E. coli (BL21) (BL21) it was 2 µM. Besides, the minimum inhibitory concentration (MIC) (as a rule, the least concentration at which growth counts as inhibited) with S. aureus (USA300) was greater than 128 µM; in the series with S. pyogenes (M1) (M1, 16 h), 2 µM; in the series with P. aeruginosa (PAO1), 8 µM; with E. coli (BL21) (BL21, 16 h), 2 µM. Further, the “concentration at which peptide is cytotoxic” value (from here on “concentration”) in series [1] is no less than 64 µM.
For the molecule `CC[C@H](C)[C@H](NC(=O)[C@H](CCCCN)NC(=O)[C@H](CCCCN)NC(=O)[C@H](CCCCN)NC(=O)[C@H](CC(C)C)NC(=O)[C@H](CCCNC(=N)N)NC(=O)[C@H](CCC(N)=O)NC(=O)[C@H](Cc1ccccc1)NC(=O)[C@@H](NC(=O)[C@@H](NC(=O)[C@H](CCC(=O)O)NC(=O)[C@H](CCCCN)NC(=O)CNC(=O)[C@H](C)N)[C@@H](C)O)[C@@H](C)CC)C(=O)N[C@@H](CCC(N)=O)C(=O)N[C@@H](CCC(=O)O)C(=O)N[C@@H](CCCCN)C(=O)N[C@@H](Cc1c[nH]c2ccccc12)C(=O)N[C@@H](CCCCN)C(=O)N[C@@H](CCCNC(=N)N)C(=O)N[C@@H](C)C(=O)N[C@H](C(=O)N[C@H](C(=O)N[C@@H](C)C(=O)N[C@@H](Cc1c[nH]c2ccccc12)C(=O)O)[C@@H](C)CC)[C@@H](C)O` [Syn-larvacin-43] (H-AGKETIFQRLKKKIQEKWKRATIAW-OH; N-terminus and C-terminus assumed), the PI positive cells result with E. coli strain BL21 is reported as “higher cell counts of PI-stained cells in a dose-dependent manner”. The minimum bactericidal concentration (MBC) in the series on S. aureus (USA300) amounted to 4 µM; with S. pyogenes (M1), 4 µM; in the series on P. aeruginosa (PAO1), 16 µM; with E. coli (BL21) (BL21), 1 µM. Also, the MIC in the series on S. aureus (USA300) was 4 µM; in the series on S. pyogenes (M1) (M1, 16 h) it was 4 µM; in the series on P. aeruginosa (PAO1), 16 µM; in the series with E. coli (BL21) (BL21, 16 h), 1 µM. Moreover, in the series on sheep erythrocytes, the “Percent Hemolysis” value was found to be 19.9%. Moreover, the “GFP leakage / change in fluorescence” value in series [2] is “significant decrease in fluorescence”.
Consider `CC[C@H](C)[C@H](NC(=O)[C@H](CCCNC(=N)N)NC(=O)CNC(=O)[C@@H](NC(=O)[C@H](CCCCN)NC(=O)[C@H](CCCNC(=N)N)NC(=O)[C@@H](NC(=O)[C@H](Cc1ccc(O)cc1)NC(=O)[C@H](CCCNC(=N)N)NC(=O)[C@H](CCCNC(=N)N)NC(=O)[C@H](CC(C)C)NC(=O)[C@H](CCC(=O)O)NC(=O)[C@H](CCCCN)NC(=O)[C@H](C)NC(=O)[C@@H](NC(=O)[C@H](CCCNC(=N)N)NC(=O)[C@H](CC(N)=O)NC(=O)[C@@H](NC(=O)CNC(=O)[C@H](C)N)[C@@H](C)O)[C@@H](C)CC)[C@@H](C)CC)C(C)C)C(=O)N[C@@H](C)C(=O)N[C@@H](CCCNC(=N)N)C(=O)N[C@@H](CCCCN)C(=O)N[C@@H](CCCCN)C(=O)N[C@@H](Cc1c[nH]c2ccccc12)C(=O)O` [Syn-sordellicin-88] (H-AGTNRIAKELRRYIRKVGRIARKKW-OH; N-terminus and C-terminus assumed), for which the minimal bactericidal concentration (MBC) in the series on S. aureus (USA300) is 64 µM; in the series on S. pyogenes (M1), 1 µM; in the series with P. aeruginosa (PAO1), 16 µM; with E. coli (BL21) (BL21), 1 µM. The MIC came to 64 µM in the series with S. aureus (USA300); 1 µM in the series with S. pyogenes (M1) (M1, 16 h); 16 µM in the series with P. aeruginosa (PAO1); 1 µM with E. coli (BL21) (BL21, 16 h). In addition, in the series on sheep erythrocytes, the “Percent Hemolysis” value is given as 11.7%. In series [1], the “concentration” value is no less than 64 µM.
For `CC[C@H](C)[C@H](NC(=O)[C@H](CCCNC(=N)N)NC(=O)CNC(=O)[C@@H](NC(=O)[C@H](CCCCN)NC(=O)[C@H](CCCNC(=N)N)NC(=O)[C@@H](NC(=O)[C@H](Cc1ccc(O)cc1)NC(=O)[C@H](CCCNC(=N)N)NC(=O)[C@H](CCCNC(=N)N)NC(=O)[C@H](CC(C)C)NC(=O)[C@H](CCC(=O)O)NC(=O)[C@H](CCCCN)NC(=O)[C@H](C)NC(=O)[C@@H](NC(=O)[C@H](CCCNC(=N)N)NC(=O)[C@H](CC(N)=O)NC(=O)[C@@H](NC(=O)CNC(=O)[C@H](C)N)[C@@H](C)O)[C@@H](C)CC)[C@@H](C)CC)C(C)C)C(=O)N[C@@H](C)C(=O)N[C@@H](CCCNC(=N)N)C(=O)N[C@@H](CCCCN)C(=O)N[C@@H](Cc1c[nH]c2ccccc12)C(=O)N[C@@H](Cc1c[nH]c2ccccc12)C(=O)O` [Syn-sordellicin-64] (H-AGTNRIAKELRRYIRKVGRIARKWW-OH; N-terminus and C-terminus assumed), the minimum bactericidal concentration (MBC) in the series with S. aureus (USA300) is 8 µM; in the series on S. pyogenes (M1), 1 µM; in the series with P. aeruginosa (PAO1), 8 µM; in the series with E. coli (BL21) (BL21) it was 0.5 µM. Also, the MIC amounted to 8 µM in the series on S. aureus (USA300); 1 µM with S. pyogenes (M1) (M1, 16 h); 8 µM in the series with P. aeruginosa (PAO1); 0.25 µM in the series on E. coli (BL21) (E. coli BL21). Also, the “Percent Hemolysis” value with sheep erythrocytes came out at 18.8%. Further, in series [1], the “concentration” value was no less than 32 µM.
In the case of `CC(C)O` [Isopropyl alcohol, isopropyl alcohol, reference compound], the PI positive cells entry in the series on E. coli strain BL21 is listed as “large peak within the PI florescence range”.
As for `CC[C@H](C)[C@H](NC(=O)[C@H](Cc1c[nH]c2ccccc12)NC(=O)[C@H](C)NC(=O)[C@H](CCCNC(=N)N)NC(=O)[C@H](CCCCN)NC(=O)CNC(=O)[C@H](CCCCN)NC(=O)[C@H](CCC(=O)O)NC(=O)[C@H](CCC(N)=O)NC(=O)[C@@H](NC(=O)[C@H](CCCCN)NC(=O)[C@H](CCCCN)NC(=O)[C@H](CCCCN)NC(=O)[C@H](CC(C)C)NC(=O)[C@H](CCCNC(=N)N)NC(=O)[C@H](CCC(N)=O)NC(=O)[C@H](Cc1ccccc1)NC(=O)[C@@H](NC(=O)[C@@H](NC(=O)[C@H](CCC(=O)O)NC(=O)[C@H](CCCCN)NC(=O)CNC(=O)[C@H](C)N)[C@@H](C)O)[C@@H](C)CC)[C@@H](C)CC)C(=O)N[C@@H](C)C(=O)N[C@@H](Cc1c[nH]c2ccccc12)C(=O)O` [Syn-larvacin-27] (H-AGKETIFQRLKKKIQEKGKRAWIAW-OH; N-terminus and C-terminus assumed), the PI positive cells result in the series on E. coli strain BL21 is given as “higher cell counts of PI-stained cells in a dose-dependent manner”. The MBC with S. aureus (USA300) was 8 µM; in the series on S. pyogenes (M1), 0.5 µM; with P. aeruginosa (PAO1) it was 64 µM; in the series with E. coli (BL21) (setting [3]), “below 15.6 nM”. Besides, the MIC in the series with S. aureus (USA300) was 8 µM; in the series with S. pyogenes (M1) (S. pyogenes M1), 0.125 µM; in the series with S. pyogenes (M1) (S. pyogenes M1, running text b43, unit printed nm) it was 0.125 µM; in the series with P. aeruginosa (PAO1), 32 µM; in the series on E. coli (BL21) (BL21) it was 0.0156 µM; in the series on E. coli (BL21) (BL21, 16 h), less than 0.0156 µM. The MIC result in the series with E. coli (BL21) (setting [3]) is reported as “below 15.6 nM”. For the same molecule, the “GFP leakage / change in fluorescence” value in series [2] is on record as “significant decrease in fluorescence”.

These data come from article PMC7689250, “Synthetic Peptide Libraries Designed From a Minimal Alpha-Helical Domain of AS-48-Bacteriocin Homologs Exhibit Potent Antibacterial Activity” (Frontiers in Microbiology, 2020).
